Test results reported in ChEMBL document CHEMBL1151048, “Synthesis and antimicrobial activity of 5-thioabbeymycin: limitations of the iminothioether approach to carbinolamine-containing pyrrolobenzodiazepines” (1993).

Experiments:
Type in all cases: functional
Pseudomonas aeruginosa [1] = assay: Minimum inhibitory concentration against Pseudomonas aeruginosa; value ranges from 2-4 ug cm-3
Pseudomonas aeruginosa [2] = assay: Minimum bactericidal concentration against Pseudomonas aeruginosa; value ranges from 2-4 ug cm-3
Staphylococcus aureus [3] = assay: Minimum bactericidal concentration against Staphylococcus aureus; value ranges from 2-8 ug cm-3
Staphylococcus aureus [4] = assay: Minimum inhibitory concentration against Staphylococcus aureus; value ranges from 2-4 ug cm-3

MIC (Pseudomonas aeruginosa [1]): 2 ug cm**-3 | MIC (Staphylococcus aureus [4]): 2 ug cm**-3
SMILES: O[C@H]1C[C@H]2C=Nc3ccccc3C(=S)N2C1
MBC (Pseudomonas aeruginosa [2]): 2 ug cm**-3 | MBC (Staphylococcus aureus [3]): 2 ug cm**-3
